In patent publication EP0333351A2, “Platinum coordination compounds” (JOHNSON MATTHEY PUBLIC LIMITED COMPANY, priority 1988, dated 1989):

Test system: ADJ/PC6 tumour
Assay: Antitumour activity against the ADJ/PC6 tumour in mice, intraperitoneal route (LD50, ED90, T.I.)
Format: in vivo
Conditions: for ED90: Table 1, ADJ/PC6 tumour in mice; for LD50: Table 1, mice
Protocol: The invention will now be described by way of example only. A selection of compounds according to the invention were prepared by the above-described method, and were characterised by elemental analysis and infra red spectroscopy. The compounds were compared against known compounds and against each other for activity against the ADJ/PC6 tumour in mice, when given by the intraperitoneal route and the results are tabulated below.

Q: How did the ED90 turn out when N.N.[Cl][Pt]([Cl])([Cl])[Cl] [Comparison A] was run?
A: 3.4 mg/kg

Q: And the LD50?
A: 18 mg/kg

Q: Which results are given for NC1CCCCC1.NC1CCCCC1.[Cl][Pt]([Cl])([Cl])[Cl] [Comparison B]?
A: ED90: 10 mg/kg; LD50: 190 mg/kg
